Assay results as given in ChEMBL document CHEMBL1201862, “PubChem BioAssay data set” (2004).
Activity calls are given as the source filed them.

Columns and labels:
Format in all cases: functional
Vero = Vero cell cytotoxicity, cytotoxicity control for flavivirus capping enzyme inhibitors (AID 588742); conditions: Chlorocebus sabaeus
[1] = target: Serine/threonine-protein kinase pim-2 (Homo sapiens, UniProt Q9P1W9);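 further: value comes from a broad kinase panel profiling study in which PIM2 was one of the panel members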
[2] = target: Dual specificity tyrosine-phosphorylation-regulated kinase 4 (Homo sapiens, UniProt Q9NR20)
[3] = target: Serine/threonine-protein kinase MRCK alpha (Homo sapiens, UniProt Q5VT25)
[4] = target: Protein kinase C iota type (Homo sapiens, UniProt P41743);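 further: measured within a kinome-wide kinase panel, PRKCI as panel member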
[5] = target: Serine/threonine-protein kinase BRSK1 (Homo sapiens, UniProt Q8TDC3);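 further: measured within a kinome-wide kinase panel, with the target listed as KIAA1811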
[6] = target: Mitogen-activated protein kinase kinase kinase kinase 4 (Homo sapiens, UniProt O95819)
[7] = target: Glycogen synthase kinase-3 alpha (Homo sapiens, UniProt P49840);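 further: GSK3A result taken from a broad kinome-wide kinase panel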
[8] = target: Insulin-like growth factor 1 receptor (Homo sapiens, UniProt P08069); experiment: Navigating the Kinome. Panel member name: IGF1R
[9] = target: Calcium/calmodulin-dependent protein kinase type II subunit delta (Homo sapiens, UniProt Q13557)
[10] = target: Receptor tyrosine-protein kinase erbB-4 (Homo sapiens, UniProt Q15303);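 further: ERBB4 member of a kinome-wide kinase profiling panel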
[11] = target: Tyrosine-protein kinase Blk (Homo sapiens, UniProt P51451);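 further: obtained as one member of a kinome-wide kinase assay panel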
[12] = target: Lymphokine-activated killer T-cell-originated protein kinase (Homo sapiens, UniProt Q96KB5);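 further: value comes from a kinase panel screen in which TOPK was one of the panel members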
[13] = target: Protein kinase C gamma type (Homo sapiens, UniProt P05129)
[14] = target: Proto-oncogene tyrosine-protein kinase Src (Homo sapiens, UniProt P12931);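 further: SRC entry within a kinome-wide kinase profiling panel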
[15] = target: Serine/threonine-protein kinase Nek2 (Homo sapiens, UniProt P51955)
[16] = target: Tyrosine-protein kinase JAK2 (Homo sapiens, UniProt O60674);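 further: JAK2 tested as one member of a kinase panel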
[17] = target: Rho-associated protein kinase 1 (Homo sapiens, UniProt Q13464);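 further: measured within a broad kinome-wide panel profiling many kinases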
[18] = target: Calcium/calmodulin-dependent protein kinase type II subunit gamma (Homo sapiens, UniProt Q13555)
[19] = target: Homeodomain-interacting protein kinase 4 (Homo sapiens, UniProt Q8NE63)
[20] = target: Megakaryocyte-associated tyrosine-protein kinase (Homo sapiens, UniProt P42679);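 further: affinity measured as one member of a kinase panel (Navigating the Kinome) against MATK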
[21] = target: Serine/threonine-protein kinase DCLK1 (Homo sapiens, UniProt O15075);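 further: affinity for DCLK1 (listed as DCAMKL1) measured as one member of a kinome-wide kinase profiling panel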
[22] = target: Serine/threonine-protein kinase PAK 1 (Homo sapiens, UniProt Q13153)
Aurora kinase A = target: T1, Aurora kinase A (Homo sapiens, UniProt O14965);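 further: value from the Navigating the Kinome kinase panel profiling, panel entry STK6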
T1 sequence (O14965 whole entry): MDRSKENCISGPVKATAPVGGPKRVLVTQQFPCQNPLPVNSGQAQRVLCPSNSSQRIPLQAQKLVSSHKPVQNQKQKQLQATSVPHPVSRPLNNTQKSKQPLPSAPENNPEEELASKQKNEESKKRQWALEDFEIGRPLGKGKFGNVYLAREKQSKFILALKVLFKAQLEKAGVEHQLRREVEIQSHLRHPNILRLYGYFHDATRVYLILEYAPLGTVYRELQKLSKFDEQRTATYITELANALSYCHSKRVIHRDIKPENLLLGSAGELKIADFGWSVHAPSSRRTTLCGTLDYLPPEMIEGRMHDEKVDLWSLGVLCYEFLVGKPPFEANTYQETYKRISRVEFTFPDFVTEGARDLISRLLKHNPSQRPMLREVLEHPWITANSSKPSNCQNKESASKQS

[23] = target: Testis-specific serine/threonine-protein kinase 2 (Homo sapiens, UniProt Q96PF2);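 further: part of the Navigating the Kinome panel, target entry STK22B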
[24] = target: Dual specificity protein kinase CLK2 (Homo sapiens, UniProt P49760)
[25] = target: Tyrosine-protein kinase Srms (Homo sapiens, UniProt Q9H3Y6);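 further: SRMS measured as one member of a kinome-wide kinase profiling panel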
[26] = target: cGMP-dependent protein kinase 1 (Homo sapiens, UniProt Q13976);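 further: value from a kinome panel screen with PRKG1 as the panel member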
[27] = target: Receptor-type tyrosine-protein kinase FLT3 (Homo sapiens, UniProt P36888);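 further: FLT3 was tested as one member of a kinome-wide kinase panel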
[28] = target: Tyrosine-protein kinase Fyn (Homo sapiens, UniProt P06241)
[29] = target: Serine/threonine-protein kinase PAK 4 (Homo sapiens, UniProt O96013);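 further: value obtained within a kinome profiling panel in which PAK4 was one of the panel members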
[30] = target: Fibroblast growth factor receptor 3 (Homo sapiens, UniProt P22607)
[31] = target: Macrophage-stimulating protein receptor (Homo sapiens, UniProt Q04912); experiment: Navigating the Kinome. Panel member name: MST1R
[32] = target: BDNF/NT-3 growth factors receptor (Homo sapiens, UniProt Q16620);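 further: NTRK2 measured as one member of a broad kinome-wide kinase profiling panel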
[33] = target: STE20-like serine/threonine-protein kinase (Homo sapiens, UniProt Q9H2G2)
[34] = target: Casein kinase I isoform gamma-1 (Homo sapiens, UniProt Q9HCP0);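 further: measured as the CSNK1G1 member of a kinome profiling panel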
[35] = target: Tyrosine-protein kinase ITK/TSK (Homo sapiens, UniProt Q08881);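 further: affinity for ITK measured as one member of a broad kinase panel profiling binding across the kinome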
[36] = target: Protein kinase C zeta type (Homo sapiens, UniProt Q05513);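 further: measured as one member of a broad kinase profiling panel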
Insulin receptor = Insulin receptor (Homo sapiens, UniProt P06213);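 further: insulin receptor kinase tested as one member of a kinome-wide kinase panel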
[37] = target: Macrophage colony-stimulating factor 1 receptor (Homo sapiens, UniProt P07333);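 further: value comes from the Navigating the Kinome screening panel, CSF1R member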
[38] = target: Cyclin-dependent kinase 5 (Homo sapiens, UniProt Q00535);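 further: CDK5 measured as one member of a kinase profiling panel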
Chain of Cyclin-dependent kinase 5 (Q00535 whole entry): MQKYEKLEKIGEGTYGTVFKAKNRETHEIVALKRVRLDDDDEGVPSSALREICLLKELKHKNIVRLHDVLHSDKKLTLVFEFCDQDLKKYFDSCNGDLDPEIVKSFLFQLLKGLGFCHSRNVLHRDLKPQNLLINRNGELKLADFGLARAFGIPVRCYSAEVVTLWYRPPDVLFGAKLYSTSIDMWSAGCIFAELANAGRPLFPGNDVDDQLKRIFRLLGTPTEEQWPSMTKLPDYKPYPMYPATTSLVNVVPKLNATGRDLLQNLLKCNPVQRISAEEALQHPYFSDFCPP

Chain of Serine/threonine-protein kinase Nek2 (P51955 whole entry): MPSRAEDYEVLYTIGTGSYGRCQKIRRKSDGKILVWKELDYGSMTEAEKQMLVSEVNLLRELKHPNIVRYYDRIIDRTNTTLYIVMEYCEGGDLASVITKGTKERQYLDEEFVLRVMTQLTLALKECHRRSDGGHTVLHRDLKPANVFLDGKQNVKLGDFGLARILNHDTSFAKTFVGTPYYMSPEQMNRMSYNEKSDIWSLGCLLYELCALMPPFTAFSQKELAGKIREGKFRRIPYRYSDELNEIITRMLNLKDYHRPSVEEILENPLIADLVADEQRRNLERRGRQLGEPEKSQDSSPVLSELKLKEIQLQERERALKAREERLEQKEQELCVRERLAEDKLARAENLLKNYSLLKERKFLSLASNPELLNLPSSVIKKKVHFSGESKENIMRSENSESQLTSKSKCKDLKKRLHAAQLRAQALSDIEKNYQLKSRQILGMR
Chain of Lymphokine-activated killer T-cell-originated protein kinase (Q96KB5 whole entry): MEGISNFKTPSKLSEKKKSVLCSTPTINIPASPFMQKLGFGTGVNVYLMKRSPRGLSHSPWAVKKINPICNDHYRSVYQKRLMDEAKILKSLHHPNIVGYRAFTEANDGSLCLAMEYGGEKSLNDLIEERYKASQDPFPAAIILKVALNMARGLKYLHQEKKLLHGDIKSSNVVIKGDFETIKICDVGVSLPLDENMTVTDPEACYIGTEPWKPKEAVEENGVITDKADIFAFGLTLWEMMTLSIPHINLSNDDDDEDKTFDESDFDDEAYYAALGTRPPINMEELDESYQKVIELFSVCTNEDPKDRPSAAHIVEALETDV
Chain of Tyrosine-protein kinase Srms (Q9H3Y6 whole entry): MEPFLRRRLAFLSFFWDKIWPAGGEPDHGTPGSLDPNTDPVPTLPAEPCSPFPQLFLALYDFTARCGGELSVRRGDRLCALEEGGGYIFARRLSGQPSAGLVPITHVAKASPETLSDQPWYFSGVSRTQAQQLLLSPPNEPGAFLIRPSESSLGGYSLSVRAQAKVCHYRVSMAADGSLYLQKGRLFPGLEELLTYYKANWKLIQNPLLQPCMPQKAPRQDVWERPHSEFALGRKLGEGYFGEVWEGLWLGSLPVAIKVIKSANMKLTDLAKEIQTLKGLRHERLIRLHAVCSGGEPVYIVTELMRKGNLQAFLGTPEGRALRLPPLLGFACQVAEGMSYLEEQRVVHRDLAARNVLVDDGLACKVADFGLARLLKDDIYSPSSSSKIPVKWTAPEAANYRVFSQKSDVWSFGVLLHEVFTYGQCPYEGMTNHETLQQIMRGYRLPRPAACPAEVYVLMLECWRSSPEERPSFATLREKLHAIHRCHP
Chain of Dual specificity tyrosine-phosphorylation-regulated kinase 4 (Q9NR20 whole entry): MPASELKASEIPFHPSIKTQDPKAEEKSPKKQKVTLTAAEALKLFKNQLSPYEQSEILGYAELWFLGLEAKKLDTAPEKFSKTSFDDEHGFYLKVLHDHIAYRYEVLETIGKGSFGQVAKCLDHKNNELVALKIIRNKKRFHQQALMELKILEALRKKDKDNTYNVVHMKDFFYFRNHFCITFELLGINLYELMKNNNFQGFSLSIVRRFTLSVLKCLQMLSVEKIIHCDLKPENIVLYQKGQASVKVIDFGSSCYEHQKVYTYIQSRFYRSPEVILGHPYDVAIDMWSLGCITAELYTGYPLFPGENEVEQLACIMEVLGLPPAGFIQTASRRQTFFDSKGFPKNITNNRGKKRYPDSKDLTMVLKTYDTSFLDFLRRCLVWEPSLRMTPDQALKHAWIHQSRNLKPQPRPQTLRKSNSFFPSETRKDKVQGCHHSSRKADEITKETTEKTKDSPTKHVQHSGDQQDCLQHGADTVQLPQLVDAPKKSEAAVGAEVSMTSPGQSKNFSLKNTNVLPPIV
Chain of Serine/threonine-protein kinase MRCK alpha (Q5VT25 whole entry): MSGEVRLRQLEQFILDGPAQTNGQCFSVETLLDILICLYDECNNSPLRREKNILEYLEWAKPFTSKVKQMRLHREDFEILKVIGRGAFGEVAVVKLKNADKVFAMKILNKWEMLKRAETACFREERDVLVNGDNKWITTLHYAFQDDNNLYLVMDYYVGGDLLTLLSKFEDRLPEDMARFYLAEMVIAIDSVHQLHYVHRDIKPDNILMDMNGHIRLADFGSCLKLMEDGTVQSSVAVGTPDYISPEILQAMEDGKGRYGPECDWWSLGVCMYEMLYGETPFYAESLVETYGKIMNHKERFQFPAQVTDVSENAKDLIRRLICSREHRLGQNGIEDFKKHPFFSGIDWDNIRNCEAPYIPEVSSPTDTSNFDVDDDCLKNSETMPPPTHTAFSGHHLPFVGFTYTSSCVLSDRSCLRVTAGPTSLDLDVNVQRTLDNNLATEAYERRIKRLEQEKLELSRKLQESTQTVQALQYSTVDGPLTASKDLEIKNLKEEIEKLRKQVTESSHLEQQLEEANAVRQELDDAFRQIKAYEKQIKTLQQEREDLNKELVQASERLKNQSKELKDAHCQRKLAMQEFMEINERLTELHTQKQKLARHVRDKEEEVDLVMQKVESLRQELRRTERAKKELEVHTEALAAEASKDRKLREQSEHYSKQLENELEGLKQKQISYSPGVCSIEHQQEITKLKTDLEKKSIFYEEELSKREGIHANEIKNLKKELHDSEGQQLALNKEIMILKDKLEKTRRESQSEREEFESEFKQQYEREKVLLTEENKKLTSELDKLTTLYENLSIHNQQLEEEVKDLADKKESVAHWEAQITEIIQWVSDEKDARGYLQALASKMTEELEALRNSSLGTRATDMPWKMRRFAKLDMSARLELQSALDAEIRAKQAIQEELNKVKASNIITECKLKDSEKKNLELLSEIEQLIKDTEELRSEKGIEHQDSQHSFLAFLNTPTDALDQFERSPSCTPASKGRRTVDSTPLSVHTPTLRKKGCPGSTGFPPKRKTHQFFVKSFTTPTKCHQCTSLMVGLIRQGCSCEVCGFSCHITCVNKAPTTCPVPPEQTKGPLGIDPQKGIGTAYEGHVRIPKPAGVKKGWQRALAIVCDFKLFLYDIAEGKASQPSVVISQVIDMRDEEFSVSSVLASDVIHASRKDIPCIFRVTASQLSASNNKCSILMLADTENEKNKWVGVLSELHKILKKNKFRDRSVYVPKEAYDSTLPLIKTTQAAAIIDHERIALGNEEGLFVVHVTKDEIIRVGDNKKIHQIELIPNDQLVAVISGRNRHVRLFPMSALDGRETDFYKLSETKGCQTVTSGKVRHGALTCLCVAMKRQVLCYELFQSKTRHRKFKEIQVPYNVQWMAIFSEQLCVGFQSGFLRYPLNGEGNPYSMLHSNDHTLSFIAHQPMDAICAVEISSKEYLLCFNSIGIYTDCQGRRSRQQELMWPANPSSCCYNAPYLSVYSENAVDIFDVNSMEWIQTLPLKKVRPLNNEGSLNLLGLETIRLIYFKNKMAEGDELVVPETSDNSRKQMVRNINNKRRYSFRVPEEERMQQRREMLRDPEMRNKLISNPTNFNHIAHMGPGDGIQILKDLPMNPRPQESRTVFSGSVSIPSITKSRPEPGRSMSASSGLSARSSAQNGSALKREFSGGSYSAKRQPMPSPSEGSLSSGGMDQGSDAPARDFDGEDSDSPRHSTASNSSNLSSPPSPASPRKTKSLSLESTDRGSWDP
Chain of Protein kinase C iota type (P41743 whole entry): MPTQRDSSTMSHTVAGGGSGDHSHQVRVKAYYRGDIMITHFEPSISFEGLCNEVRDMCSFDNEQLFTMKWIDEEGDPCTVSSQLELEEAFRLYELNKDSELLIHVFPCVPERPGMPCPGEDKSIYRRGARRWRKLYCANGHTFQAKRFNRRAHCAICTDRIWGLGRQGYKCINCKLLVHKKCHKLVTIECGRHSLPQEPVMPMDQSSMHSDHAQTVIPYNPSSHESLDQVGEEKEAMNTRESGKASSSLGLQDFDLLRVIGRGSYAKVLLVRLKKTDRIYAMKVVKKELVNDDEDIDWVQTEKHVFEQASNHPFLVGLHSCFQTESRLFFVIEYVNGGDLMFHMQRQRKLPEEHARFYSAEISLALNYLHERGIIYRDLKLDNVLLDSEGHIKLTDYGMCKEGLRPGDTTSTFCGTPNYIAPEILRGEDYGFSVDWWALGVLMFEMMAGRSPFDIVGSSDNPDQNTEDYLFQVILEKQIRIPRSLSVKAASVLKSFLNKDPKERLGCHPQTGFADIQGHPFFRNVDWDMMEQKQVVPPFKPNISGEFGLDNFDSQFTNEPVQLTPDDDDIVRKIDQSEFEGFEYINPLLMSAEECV
Chain of Homeodomain-interacting protein kinase 4 (Q8NE63 whole entry): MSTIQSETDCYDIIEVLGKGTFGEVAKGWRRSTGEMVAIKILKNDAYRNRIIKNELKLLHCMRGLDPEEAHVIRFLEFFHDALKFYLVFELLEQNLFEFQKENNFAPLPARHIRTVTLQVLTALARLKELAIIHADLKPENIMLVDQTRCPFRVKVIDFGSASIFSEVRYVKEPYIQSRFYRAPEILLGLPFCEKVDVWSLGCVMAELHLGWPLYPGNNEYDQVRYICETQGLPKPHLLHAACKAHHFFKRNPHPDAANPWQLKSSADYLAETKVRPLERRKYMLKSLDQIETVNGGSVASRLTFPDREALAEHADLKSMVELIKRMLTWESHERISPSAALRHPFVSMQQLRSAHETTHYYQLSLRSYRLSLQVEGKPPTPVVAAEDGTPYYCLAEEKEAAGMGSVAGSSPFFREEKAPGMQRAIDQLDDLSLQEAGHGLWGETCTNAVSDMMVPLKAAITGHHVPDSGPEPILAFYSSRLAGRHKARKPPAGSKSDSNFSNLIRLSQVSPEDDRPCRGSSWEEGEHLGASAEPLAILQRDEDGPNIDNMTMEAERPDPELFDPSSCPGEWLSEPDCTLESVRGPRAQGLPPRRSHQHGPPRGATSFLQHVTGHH

Cc1c(/N=C2\C=CC(=O)c3ccccc32)c(=O)n(-c2ccccc2)n1C
CC50 (Vero): 20600 nM (active)

O=C(O)c1ccc(NC2=C(Cl)C(=O)c3ccccc3C2=O)cc1
CC50 (Vero): 28300 nM (active)

COc1cc2c(cc1F)C(c1ccccc1Cl)=Nc1c(n[nH]c1C)N2 [RG-1530]
Ki [1]: > 1580 nM (inactive) | Ki [2]: > 7940 nM (inactive) | Ki [3]: > 10000 nM (inactive) | Ki [4]: > 5010 nM (inactive) | Ki [5]: 1260 nM (active) | Ki [6]: > 3980 nM (inactive) | Ki [7]: 50.1 nM (active) | Ki [8]: > 1260 nM (inactive) | Ki [9]: > 6310 nM (inactive) | Ki [10]: 2000 nM (active) | Ki [11]: 63.1 nM (active) | Ki [12]: > 10000 nM (inactive) | Ki [13]: 3980 nM (active) | Ki [14]: 126 nM (active) | Ki [15]: > 6310 nM (inactive) | Ki [16]: 126 nM (active) | Ki [17]: > 2510 nM (inactive) | Ki [18]: > 6310 nM (inactive) | Ki [19]: > 7940 nM (inactive) | Ki [20]: > 2000 nM (inactive) | Ki [21]: > 10000 nM (inactive) | Ki [22]: 316 nM (active) | Ki (Aurora kinase A): 25.1 nM (active) | Ki [23]: 1000 nM (active) | Ki [24]: 2510 nM (active) | Ki [25]: > 1580 nM (inactive) | Ki [26]: > 2000 nM (inactive) | Ki [27]: 79.4 nM (active) | Ki [28]: 316 nM (active) | Ki [29]: 79.4 nM (active) | Ki [30]: 25.1 nM (active) | Ki [31]: 39.8 nM (active) | Ki [32]: 100 nM (active) | Ki [33]: 39.8 nM (active) | Ki [34]: > 6310 nM (inactive) | Ki [35]: 126 nM (active) | Ki [36]: > 7940 nM (inactive)

Cc1ccc2nccc(NC(=O)Nc3cccc(C(F)(F)F)n3)c2c1
Ki [1]: > 1580 nM (inactive) | Ki [2]: > 7940 nM (inactive) | Ki (Insulin receptor): > 5010 nM (inactive) | Ki [3]: > 10000 nM (inactive) | Ki [4]: > 5010 nM (inactive) | Ki [5]: > 10000 nM (inactive) | Ki [6]: > 2510 nM (inactive) | Ki [8]: > 2000 nM (inactive) | Ki [37]: > 2510 nM (inactive) | Ki [9]: > 6310 nM (inactive) | Ki [10]: > 3980 nM (inactive) | Ki [11]: > 1580 nM (inactive) | Ki [12]: 2000 nM (active) | Ki [13]: 5010 nM (active) | Ki [14]: > 2000 nM (inactive) | Ki [15]: > 10000 nM (inactive) | Ki [16]: > 2000 nM (inactive) | Ki [17]: > 6310 nM (inactive) | Ki [18]: > 6310 nM (inactive) | Ki [19]: 251 nM (active) | Ki [20]: > 2000 nM (inactive) | Ki [21]: > 10000 nM (inactive) | Ki [22]: > 10000 nM (inactive) | Ki [23]: > 1580 nM (inactive) | Ki [24]: > 2000 nM (inactive) | Ki [25]: > 1580 nM (inactive) | Ki [26]: > 2000 nM (inactive) | Ki [27]: 251 nM (active) | Ki [28]: > 794 nM (inactive) | Ki [29]: > 5010 nM (inactive) | Ki [30]: > 2000 nM (inactive) | Ki [31]: 2510 nM (active) | Ki [32]: > 5010 nM (inactive) | Ki [33]: > 10000 nM (inactive) | Ki [34]: > 6310 nM (inactive) | Ki [35]: > 1580 nM (inactive) | Ki [36]: > 7940 nM (inactive) | Ki [38]: 316 nM (active)

Cc1nn(C)c2sc3c(=O)[nH]cnc3c12
Ki (Insulin receptor): > 50100 nM (inactive) | Ki [7]: 50100 nM (active) | Ki [37]: > 63100 nM (inactive) | Ki (Aurora kinase A): > 63100 nM (inactive) | Ki [38]: 79400 nM (active)
